Experimental data taken from patent US20230225999A1, “A NUTRITIONAL COMPOSITION COMPRISING 3-HYDROXYBUTYRIC ACID TO IMPROVE THE GASTROINTESTINAL BARRIER” (priority 2020, published 2023).

Test system: co-culture cell-line model of intestinal epithelial cells containing Caco-2 and HT29-MTX cells
Experiment: Direct effect of 3-hydroxybutyric acid on inflammation-induced epithelial barrier dysfunction (FD4 translocation)
Assay type: cell-based, human
Conditions: 10 μM apical, 36 hours pre-treatment, then TNF-α (2.5 ng/ml) and IFN-γ (10 ng/ml) for 48 hours
Procedure: The human Caco-2 and HT29-MTX cell lines were obtained from the American Type Culture Collection (ATCC) and the European Collection of Authenticated Cell Cultures (ECACC), respectively. Caco-2 cell and HT29-MTX were maintained separately in culture flasks at 37° C. under humidified 10% CO2 atmosphere in Dulbecco's […] (DMEM) supplemented with GlutaMAX (Invitrogen), 1% […], 100 μg/ml streptomycin, 100 UI/ml penicillin and heat inactivated fetal bovine serum (FBS; 15% for Caco-2 and 10% for HT29-MTX). To make co-culture for epithelial barrier studies, each cell lines were expanded in their respective flasks until 90% confluent monolayers were reached. Cell lines are then trypsinized with 1× trypsin. Co-culture of Caco-2 and HT29-MTX were seeded at 6×10^4/cm^2 on 1.12 cm^2 Transwell Polycarbonate semi-permeable membranes (0.4 μm) and grown in DMEM supplemented with GlutaMAX, 1% minimum essential media, 100 μg/ml streptomycin, 100 UI/ml penicillin and 10% heat inactivated FBS for 21 days. […] At the end of the experiment, translocation of the FITC-labeled dextran (4000 Da) from the apical to basolateral compartment was quantified within a 2-hour period. FD4 translocation data were analysed by using the two-sided two-sample Student t-test assuming unequal variances.

CC(O)CC(=O)O (stereo not shown) [3-hydroxybutyric acid]
Epithelial barrier intactness: translocation of FITC-labeled dextran (FD4) from apical to basolateral compartment relative to control +ve (FIG. 6): protect the barrier against inflammation-induced epithelial barrier hyperpermeability
